57 compounds from patent US7179832B2, “Glycogen synthase kinase 3β inhibitor, composition and process for the preparation thereof” (Crystalgenomics, Inc., priority 2003, dated 2007) can be followed below.

Some results are limits rather than exact numbers.

The target in one test is GSK-3β (Homo sapiens, UniProt P49841). As to the kind of experiment: Assay for GSK-3β inhibiting activity (32P-ATP, phospho-CREB peptide substrate, filter paper, CPM). The conditions noted are these: GSK-3β inhibiting activity; 100 nM GSK-3β protein, 100 μM phospho-CREB peptide, 100 μM ATP, 30° C. for 1 hour; read-out: IC50. It counts as biochemical. The protocol: Assay for GSK-3β inhibiting activity
Sequence of GSK-3β (P49841 whole entry, the tested form may be a part): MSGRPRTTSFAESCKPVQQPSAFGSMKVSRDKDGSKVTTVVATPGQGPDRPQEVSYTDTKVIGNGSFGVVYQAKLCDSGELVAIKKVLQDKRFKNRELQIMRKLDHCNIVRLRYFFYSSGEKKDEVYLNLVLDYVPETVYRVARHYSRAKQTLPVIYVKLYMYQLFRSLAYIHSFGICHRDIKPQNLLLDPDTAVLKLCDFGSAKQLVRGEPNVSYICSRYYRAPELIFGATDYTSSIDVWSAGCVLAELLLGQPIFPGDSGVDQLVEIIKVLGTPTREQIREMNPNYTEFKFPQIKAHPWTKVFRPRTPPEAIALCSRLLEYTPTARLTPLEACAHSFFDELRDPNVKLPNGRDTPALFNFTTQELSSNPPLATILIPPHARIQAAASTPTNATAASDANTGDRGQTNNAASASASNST
First, PCR (polymerase chain reaction) was carried out using human DNA as a template as well as primers which were designed to correspond to the 3′- and 5′ ends of the polynucleotide coding human GSK-3β gene (Genbank Accession No.: L33801). The BamH1/XhoI fragment of the amplified PCR product thus obtained was inserted into the pGex vector between the BamH1 and XhoI sites, and the vector obtained was transformed into E. coli BL21(DE3). The transformed cells thus obtained was incubated in […] (1% Bacto-trypton, 0.5% yeast extract, 1% NaCl) containing ampicillin ([…]) until the optical density at 600 nm reached about 0.5. The cultured mixture was cooled to 18° C. and isopropyl β-D-thiogalacto-pyranoside (IPTG) was added thereto to a final concentration of 0.5 mM. After 16 hours, the resultant was centrifuged at 10,000×g for 10 min, the collected cells were suspended in a buffer solution (30 mM Tris-HCl (pH 7.5), 100 mM NaCl, 5% glycerol, 2 mM DTT) and the cells were disrupted using Sonic Dismembrator (Fisher, U.S.A.) in a ice bath. The resulting solution was centrifuged at 16,000 rpm for 30 minutes. […] The purified GSK-3β protein was diluted in a buffer solution (20 mM HEPES (pH 7.5), 5% glycerol, 2 mM DTT) to a final concentration of 50 mM NaCl and the resulting solution was subjected to mono S column chromatography (eluent: linear gradient from 0M to 1M NaCl buffer) using mono S column (Pharmacia Biotech, U.S.A.) equilibrated in the same buffer solution to obtain GSK-3β protein.
The reaction was stopped by adding 5 μl of 5% phosphoric acid to 25 μl of the resulting solution. The resulting mixture was centrifuged at 15,000 rpm for 10 min, 20 μl of the supernatant was added dropwise to Whatman p81 filter paper, and then, the resulting filter paper was washed with 0.5% phosphate buffer for 10 min. The filter paper was further washed 3 times and the enzymatic activity was determined by examining the extent of phospho-CREB peptide phosphorylation which is represented by the unit of count per minute (CPM), measured with a β-counter (Packard, USA).
The GSK-3β inhibiting activity was then calculated in accordance with the following equation:
[formula] wherein the blank represents a value obtained without the use of the enzyme and the compound of the present invention, and the control, in the absence of the compound of the present invention.
Usually IC50 stands for the concentration that inhibits the measured activity by half. As for `CS(=O)(=O)NCCc1ccc(NC(=O)c2ccc(O)c3[nH]c(-c4ccc(F)cc4F)nc23)cc1` [Compound 37], the IC50 was greater than 1 µM.

For the compound `O=C(NCCc1cccc(Br)c1)c1ccc(O)c2[nH]c(-c3ccc(F)cc3)nc12` [Compound 139], the IC50 came out at 0.12 µM.

As for `O=C(NCCCn1ccnc1)c1ccc(O)c2[nH]c(-c3ccc(F)cc3)nc12` [Compound 185], the IC50 was greater than 1 µM.

Regarding `CCS(=O)(=O)NCCc1ccc(NC(=O)c2ccc(O)c3[nH]c(-c4ccc(F)cc4Cl)nc23)cc1` [Compound 42], the IC50 is greater than 1 µM.

For the compound `O=C(NCCCn1cnc(Cl)c1Cl)c1ccc(O)c2[nH]c(-c3ccc(F)cc3F)nc12` [Compound 194], the concentration for half-maximal inhibition (IC50) came out at 0.004 µM.

Consider `Cc1ccc(S(=O)(=O)Nc2ccc(CCNC(=O)c3ccc(O)c4[nH]c(-c5ccc(Cl)cc5Cl)nc34)cc2)cc1` [Compound 105], for which the IC50 amounted to 0.05 µM.

`O=C(NCc1ccccc1)c1ccc(O)c2[nH]c(-c3ccc(Cl)cc3Cl)nc12` [Compound 55]: the 50% inhibitory concentration (IC50) was greater than 1 µM.

Take `O=C(NCCNc1ccc([N+](=O)[O-])cn1)c1ccc(O)c2[nH]c(-c3ccc(Cl)cc3Cl)nc12` [Compound 110]: the IC50 came to 0.28 µM.

Turning to `CS(=O)(=O)NCCc1ccc(NC(=O)c2ccc(O)c3[nH]c(-c4ccc(Cl)cc4)nc23)cc1` [Compound 17], the IC50 worked out at 0.24 µM.

On to `Cc1cn(CCCNC(=O)c2ccc(O)c3[nH]c(-c4ccc(Cl)cc4)nc23)cn1` [Compound 173], for which the 50% inhibitory concentration (IC50) came to 0.1 µM.

For `O=C(NCCc1ccc(O)cc1)c1ccc(O)c2[nH]c(-c3ccc(F)cc3Cl)nc12` [Compound 150], the IC50 amounted to 0.06 µM.

Consider `CC(C)c1nccn1CCCNC(=O)c1ccc(O)c2[nH]c(-c3ccc(F)cc3)nc12` [Compound 186], for which the concentration for half-maximal inhibition (IC50) was 0.05 µM.

Take `O=C(NCCCn1ccnc1)c1ccc(O)c2[nH]c(-c3ccc(Cl)cc3Cl)nc12` [Compound 178]: the concentration for half-maximal inhibition (IC50) was 0.04 µM.

Consider `O=C(NCCc1ccccn1)c1ccc(O)c2[nH]c(-c3ccc(Cl)cc3)nc12` [Compound 82], for which the half-maximal inhibitory concentration (IC50) is greater than 1 µM.

Take `Cc1nccn1CCCNC(=O)c1ccc(O)c2[nH]c(-c3ccc(F)cc3F)nc12` [Compound 195]: the half-maximal inhibitory concentration (IC50) was found to be 0.03 µM.

On to `O=C(NCCNc1ccc([N+](=O)[O-])cn1)c1ccc(O)c2[nH]c(-c3ccc(Cl)cc3)nc12` [Compound 81], for which the concentration for half-maximal inhibition (IC50) was greater than 1 µM.

Regarding `O=C(NCCCn1cnc(Cl)c1Cl)c1ccc(O)c2[nH]c(-c3ccc(F)cc3Cl)nc12` [Compound 200], the half-maximal inhibitory concentration (IC50) stood at 0.002 µM.

For `O=C(NCCCN1CCCC1=O)c1ccc(O)c2[nH]c(-c3ccc(Cl)cc3)nc12` [Compound 169], the IC50 is greater than 1 µM.

As for `CCS(=O)(=O)NCCc1ccc(NC(=O)c2ccc(O)c3[nH]c(-c4ccc(Cl)cc4Cl)nc23)cc1` [Compound 32], the IC50 is 0.5 µM.

Regarding `Cc1ccc(S(=O)(=O)NCCc2ccc(NC(=O)c3ccc(O)c4[nH]c(-c5ccccc5)nc34)cc2)cc1` [Compound 9], the IC50 came out at 0.18 µM.

With `O=C(NCCc1ccccn1)c1ccc(O)c2[nH]c(-c3ccc(Cl)cc3Cl)nc12` [Compound 111], the IC50 was greater than 1 µM.

For `CCS(=O)(=O)Nc1ccc(CCNC(=O)c2ccc(O)c3[nH]c(-c4ccc(F)cc4F)nc23)cc1` [Compound 142], the IC50 was 0.001 µM.

As for `CC(C)c1nccn1CCCNC(=O)c1ccc(O)c2[nH]c(-c3ccc(Cl)cc3Cl)nc12` [Compound 184], the IC50 was determined as 0.15 µM.

On to `CCCCC(=O)Nc1ccc(CCNC(=O)c2ccc(O)c3[nH]c(-c4ccc(Cl)cc4Cl)nc23)cc1` [Compound 113], for which the half-maximal inhibitory concentration (IC50) was 0.19 µM.

In the case of `NCCNC(=O)c1ccc(O)c2[nH]c(-c3ccc(Cl)cc3Cl)nc12` [Compound 103], the half-inhibitory concentration (IC50) is greater than 5 µM.

For the compound `O=C(Nc1ccccc1)c1ccc(O)c2[nH]c(-c3ccc(Cl)cc3)nc12` [Compound 14], the half-inhibitory concentration (IC50) was greater than 1 µM.

As to `CN(C)CC(=O)Nc1ccc(CCNC(=O)c2ccc(O)c3[nH]c(-c4ccc(F)cc4Cl)nc23)cc1` [Compound 158], the half-maximal inhibitory concentration (IC50) was determined as 0.23 µM.

As for `CCN(CC)CC(=O)Nc1ccc(CCNC(=O)c2ccc(O)c3[nH]c(-c4ccc(Cl)cc4)nc23)cc1` [Compound 89], the 50% inhibitory concentration (IC50) was 0.32 µM.

With `Cc1ccc(S(=O)(=O)NCCc2ccc(NC(=O)c3ccc(O)c4[nH]c(-c5ccc(F)c(Cl)c5)nc34)cc2)cc1` [Compound 43], the IC50 was greater than 1 µM.

`Nc1ccc(CCNC(=O)c2ccc(O)c3[nH]c(-c4ccc(Cl)cc4)nc23)cc1` [Compound 73]: the concentration for half-maximal inhibition (IC50) is greater than 1 µM.

For `O=C(NCCCN1CCOCC1)c1ccc(O)c2[nH]c(-c3ccc(Cl)cc3)nc12` [Compound 171], the IC50 was greater than 1 µM.

Consider `Cc1cn(CCCNC(=O)c2ccc(O)c3[nH]c(-c4ccc(F)cc4Cl)nc23)cn1` [Compound 199], for which the 50% inhibitory concentration (IC50) worked out at 0.01 µM.

For the compound `O=C(NCCN1CCOCC1)c1ccc(O)c2[nH]c(-c3ccc(F)cc3)nc12` [Compound 119], the concentration for half-maximal inhibition (IC50) was greater than 5 µM.

For `Cc1ccc(S(=O)(=O)NCCc2ccc(NC(=O)c3ccc(O)c4[nH]c(-c5ccc(F)cc5Cl)nc34)cc2)cc1` [Compound 40], the half-inhibitory concentration (IC50) is greater than 1 µM.

With `CCCCC(=O)Nc1ccc(CCNC(=O)c2ccc(O)c3[nH]c(-c4ccc(F)cc4Cl)nc23)cc1` [Compound 149], the IC50 was 0.14 µM.

On to `CS(=O)(=O)Nc1ccc(CCNC(=O)c2ccc(O)c3nc(-c4ccc(F)cc4F)[nH]c23)cc1` [Compound 140], for which the IC50 is greater than 1 µM.

In the case of `CCS(=O)(=O)Nc1ccc(CCNC(=O)c2ccc(O)c3[nH]c(-c4ccc(F)cc4)nc23)cc1` [Compound 116], the IC50 came out at 0.003 µM.

Consider `Cc1cn(CCCNC(=O)c2ccc(O)c3[nH]c(-c4ccc(F)cc4)nc23)cn1` [Compound 187], for which the concentration for half-maximal inhibition (IC50) worked out at 0.01 µM.

As to `COc1ccc(CCNC(=O)c2ccc(O)c3[nH]c(-c4ccc(Cl)cc4)nc23)cc1O` [Compound 77], the IC50 came out at 0.033 µM.

Regarding `O=C(Nc1ccc(CO)cc1)c1ccc(O)c2[nH]c(-c3ccc(Cl)cc3Cl)nc12` [Compound 26], the IC50 was greater than 1 µM.

Regarding `CN(C)CC(=O)Nc1ccc(CCNC(=O)c2ccc(O)c3[nH]c(-c4ccc(F)cc4)nc23)cc1` [Compound 129], the half-inhibitory concentration (IC50) stood at 0.12 µM.

As for `CCc1nccn1CCCNC(=O)c1ccc(O)c2[nH]c(-c3ccc(F)cc3)nc12` [Compound 189], the IC50 was greater than 1 µM.

As to `O=C(NCc1ccc([N+](=O)[O-])cc1)c1ccc(O)c2[nH]c(-c3ccc(Cl)cc3Cl)nc12` [Compound 56], the concentration for half-maximal inhibition (IC50) was 0.7 µM.

Consider `CCS(=O)(=O)Nc1ccc(CCNC(=O)c2ccc(O)c3[nH]c(-c4ccc(Cl)cc4)nc23)cc1` [Compound 80], for which the IC50 was 0.07 µM.

In the case of `O=C(NCCc1ccc(N2C(=O)c3ccccc3C2=O)cc1)c1ccc(O)c2[nH]c(-c3ccc(Cl)cc3)nc12` [Compound 79], the IC50 came out at 0.12 µM.

Regarding `O=C(Nc1ccc(CO)cc1)c1ccc(O)c2[nH]c(-c3ccccc3)nc12` [Compound 6], the IC50 was greater than 1 µM.

Turning to `O=C(Nc1ccc(CCO)cc1)c1ccc(O)c2[nH]c(-c3ccc(Cl)cc3Cl)nc12` [Compound 27], the IC50 was greater than 1 µM.

For `O=C(NCCCn1ccnc1)c1ccc(O)c2[nH]c(-c3ccc(Cl)cc3)nc12` [Compound 170], the IC50 was 0.19 µM.

Take `O=C(NCCc1ccc([N+](=O)[O-])cc1)c1ccc(O)c2[nH]c(-c3ccc(Cl)cc3Cl)nc12` [Compound 100]: the concentration for half-maximal inhibition (IC50) turned out to be 0.2 µM.

Consider `CCS(=O)(=O)NCCc1ccc(NC(=O)c2ccc(O)c3[nH]c(-c4ccc(Cl)cc4)nc23)cc1` [Compound 20], for which the 50% inhibitory concentration (IC50) came out at 4.1 µM.

Regarding `Cc1ccc(S(=O)(=O)Nc2ccc(NCCNC(=O)c3ccc(O)c4[nH]c(-c5ccc(F)cc5)nc34)nc2)cc1` [Compound 124], the half-maximal inhibitory concentration (IC50) was 0.07 µM.

As to `O=C(Nc1ccc(CCN2C(=O)c3ccccc3C2=O)cc1)c1ccc(O)c2[nH]c(-c3ccc(Cl)cc3)nc12` [Compound 18], the half-inhibitory concentration (IC50) is greater than 1 µM.

As to `CCS(=O)(=O)NCCc1ccc(NC(=O)c2ccc(O)c3[nH]c(-c4ccc(F)cc4F)nc23)cc1` [Compound 39], the IC50 was greater than 1 µM.

For the compound `Nc1ccc(CCNC(=O)c2ccc(O)c3nc(-c4ccccc4)[nH]c23)cc1` [Compound 60], the half-maximal inhibitory concentration (IC50) is 0.35 µM.

For `O=C(NCCc1ccc(OCCN2CCOCC2)cc1)c1ccc(O)c2[nH]c(-c3ccc(F)cc3)nc12` [Compound 136], the half-maximal inhibitory concentration (IC50) came to 0.24 µM.

Take `NCCc1ccc(NC(=O)c2ccc(O)c3[nH]c(-c4ccccc4)nc23)cc1` [Compound 8]: the concentration for half-maximal inhibition (IC50) was greater than 1 µM.

The test is the same for the next values; noted with them: IC50 (μM).
Regarding `O=C(CN1CCOCC1)Nc1ccc(CCNC(=O)c2ccc(O)c3nc(-c4ccc(F)cc4)[nH]c23)cc1` [Compound 134], the midpoint of inhibition, the IC50, lay at 0.04 µM.
